The values that follow are results of earlier work, collected in patent US20200330379A1, “NON-ORAL CANNABINOID FORMULATION AND METHOD OF TREATMENT” (Navinta NV, Inc., priority 2019, published 2020).

For the series the following is noted: limited by first-pass metabolism.

Turning to `CCCCCc1cc(O)c2c(c1)OC(C)(C)[C@@H]1CCC(C)=C[C@@H]21` [THC, (6aR,10aR)-6,6,9-trimethyl-3-pentyl-6a,7,8,10a-tetrahydro-6H-benzo[c]-chromen-1-ol], the Oral bioavailability was 10% and 20.
